Reference: patent US8581584B2, “Membrane proteins, mechanisms of action and uses thereof” (priority 2010, dated 2013)

Target: transmembrane domain of M2 protein (Influenza A virus, UniProt P0DOF5)
Test: solid state NMR spectra of uniformly aligned M2 samples with and without drug
Conditions: five isoleucines 15N labeled; FIG. 31
Source text: Uniformly aligned samples of membrane proteins meant that each molecule in the sample will have the same orientation with respect to the magnetic field axis of the NMR spectrometer. In this way the orientation dependent spin interactions such as anisotropic chemical shifts, dipolar and quadrupolar interactions can be observed. The orientations of the individual atomic sites in the protein reflect the orientation of that particular site with respect to the magnetic field.

Chain of transmembrane domain of M2 protein (P0DOF5 26-46): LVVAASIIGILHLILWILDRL

Compound: NC12CC3CC(CC(C3)C1)C2 [amantadine]
- change of 15N-Ile resonances in response to drug binding: two of the resonances shift (arrows) dramatically in response to drug binding
